# In patent US20260048045A1, “PI3K-ALPHA INHIBITORS FOR THE TREATMENT OF CANCER” (Scorpion Therapeutics, Inc., priority 2022, published 2026):
# Columns and labels:
# [1] = biological target: T1, PI3Kα H1047R (full-length p110-α H1047R complexed with truncated p85-α, residues 322-694) + wortmannin (Homo sapiens, UniProt P42336, H1047R); test: Surface Plasmon Resonance (SPR) binding, Biacore 8K, ATP site blocked with wortmannin; details: multi-cycle kinetics, 25° C., protein pre-incubated with 1 μM wortmannin
# T1 construct: The protein contained a full-length p110-α subunit harboring the H1047R mutation with an N-terminal AviTag
# T1 sequence (P42336 whole entry H1047R, the tested form may be a part): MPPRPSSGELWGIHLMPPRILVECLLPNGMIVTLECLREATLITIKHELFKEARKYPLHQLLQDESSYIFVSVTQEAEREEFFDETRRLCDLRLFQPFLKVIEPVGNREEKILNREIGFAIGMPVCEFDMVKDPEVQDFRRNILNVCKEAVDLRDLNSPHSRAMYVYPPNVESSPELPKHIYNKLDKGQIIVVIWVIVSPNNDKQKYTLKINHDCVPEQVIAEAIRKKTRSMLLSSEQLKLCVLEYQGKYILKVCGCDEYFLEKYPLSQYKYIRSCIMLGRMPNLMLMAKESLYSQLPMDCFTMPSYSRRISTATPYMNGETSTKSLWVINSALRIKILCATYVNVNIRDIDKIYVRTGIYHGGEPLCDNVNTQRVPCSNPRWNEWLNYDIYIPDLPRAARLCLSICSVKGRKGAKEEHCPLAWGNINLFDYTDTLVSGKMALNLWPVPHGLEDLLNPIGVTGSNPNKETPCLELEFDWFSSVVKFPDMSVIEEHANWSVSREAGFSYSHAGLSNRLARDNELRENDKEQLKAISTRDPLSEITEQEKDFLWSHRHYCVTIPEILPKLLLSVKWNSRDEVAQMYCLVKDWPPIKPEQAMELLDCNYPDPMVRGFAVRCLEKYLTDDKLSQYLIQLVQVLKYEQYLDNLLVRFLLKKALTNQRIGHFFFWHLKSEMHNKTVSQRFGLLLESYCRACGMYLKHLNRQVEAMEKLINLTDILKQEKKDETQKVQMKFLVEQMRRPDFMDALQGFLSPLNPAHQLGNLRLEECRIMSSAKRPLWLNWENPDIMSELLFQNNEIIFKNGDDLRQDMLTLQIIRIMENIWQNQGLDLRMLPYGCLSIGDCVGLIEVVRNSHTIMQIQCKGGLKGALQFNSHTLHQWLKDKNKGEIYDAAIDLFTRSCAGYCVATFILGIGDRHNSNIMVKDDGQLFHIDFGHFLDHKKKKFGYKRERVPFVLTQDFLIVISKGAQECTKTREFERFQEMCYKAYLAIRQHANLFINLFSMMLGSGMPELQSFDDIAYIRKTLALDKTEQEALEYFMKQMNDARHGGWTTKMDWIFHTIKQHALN
# T1 sequence (P27986 322-694 partner limits assumed): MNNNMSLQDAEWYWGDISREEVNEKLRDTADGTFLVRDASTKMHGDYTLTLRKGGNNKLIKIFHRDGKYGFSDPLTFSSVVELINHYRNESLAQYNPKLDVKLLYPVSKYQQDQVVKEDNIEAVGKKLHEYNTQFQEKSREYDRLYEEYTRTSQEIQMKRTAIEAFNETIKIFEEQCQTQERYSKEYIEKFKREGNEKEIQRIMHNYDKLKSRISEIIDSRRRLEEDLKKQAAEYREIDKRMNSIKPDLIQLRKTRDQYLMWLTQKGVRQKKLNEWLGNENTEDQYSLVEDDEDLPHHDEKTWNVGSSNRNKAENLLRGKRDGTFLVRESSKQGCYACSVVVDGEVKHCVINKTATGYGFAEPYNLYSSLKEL
# Procedure: SPR experiments were performed on a Biacore 8K instrument. A biotinylated recombinant PI3Kα H1047R protein was used in this study. The protein contained a full-length p110-α subunit harboring the H1047R mutation with an N-terminal AviTag, complexed with a truncated p85-α subunit (amino acid residues 322-694). The protein was first incubated with 1 μM wortmannin for 30 min at RT to covalently block the ATP binding site, then immobilized onto a streptavidin sensor chip by flowing the protein through the sensor chip at typically 20 μg/mL concentration and 2 μL/min flow rate for 1200 seconds. Compound binding affinities were measured in the multi-cycle kinetics mode, at 90 μL/min flow rate with 90 seconds association time and 240 seconds dissociation time. The running buffer contained 50 mM Tris, pH 7.5, 150 mMNaCl, 0.01% Brij35, 1 mM DTT, 1 mM MgCl2, 0.05% Tween-20 and 2% DMSO. Temperature was maintained at 25° C. during experiments. SPR can also be utilized to study competition between Compounds A and B, i.e., by measuring the binding of Compound A in the presence and absence of Compound B, and by measuring the binding of Compound B in the presence and absence of Compound A.
# [2] = tested on: pAKT (S473) in T47D.1 cells, PI3Kα H1047R mutation present; test: HTRF pAKT-T47D cell assay; format: cell-based; details: RPMI+10% FBS+0.2 units/mL bovine insulin
# Procedure: Compounds A and B were assayed using homogeneous time-resolved fluorescence (HTRF).
# Gibco RPMI 1640 Medium, no phenol red; Gibco RPMI 1640 Medium; Gibco Trypsin-EDTA (0.5%), no phenol red; Gibco DPBS; Trypan blue solution 0.4% (Corning); Avantor Seradigm Premium Grade Fetal Bovine Serum (FBS); Greiner 784080-384 well TC treated white plates; pAKT (Ser473) HTRF; Gibco Insulin, human recombinant, zinc solution; Gibco Recovery Cell Culture Freezing Medium; Countess II FL Automated Cell Counter (ThermoFisher); Countess II Slides (ThermoFisher); Microscope; and PHERAstar FSX Microplate Reader (BMG LABTECH, Inc.).
# The cell line ID was T47D.1, the HTRF detection was pAKT (S473), a PI3Kα H1047R mutation was present, the seeding density was 5000, the timepoint was 1 hour, and the medium used was RPMI+10% FBS (no phenol red)+0.2 units/mL bovine insulin.
# • The cell density was not permitted to reach 100% confluence. The cells were split 1.5 when they reached ˜80% confluence. • Cells were split twice a week (Mon and Fri). • Cells over passage 18 were not used (˜2 months of maintenance). • Antibiotics were not used for tissue culture maintenance or assays.
# The procedure was as follows: • 1. Prepared ARP: • a. Stamped 12.5 nL from 10 mM source plate to destination plate using Echo. Sealed plate immediately and froze at −20° C. if it was not used on the same day. • b. If a frozen ARP was used, the plate was thawed and spun at 1000 rpm×1 min. • 2. Preparation of cells (adherent): • a. Aspirated media from cells. Washed cells with sterile 1×PBS. Aspirated PBS and added appropriate amount of Trypsin. • b. Once cells were fully trypsinized, added appropriate media to resuspend cells. Transferred cells to a 15 mL or 50 mL conical tube. • c. Counted cells on the Countess II Cell Counter. • 3. Plating of cells: • a. […] Calculated the amount of HTRF antibody master mix needed to perform the desired experiments plus any extra dead volume required for dispensing (4 mL required per well). […]
# • 6. Measured on the PHERAstar/Envision using the HTRF protocol. When plates were read, all wells were read.
Kd [1] [nM],IC50 ([2]; 1 hour) [nM],"IC50 ([2]; Homo sapiens, T47D, 1 h) [nM]",SMILES
38.4,598,455,"Cc1c([C@@H](NC(=O)Nc2cncc(C(=O)N(C)C)c2)C(C)C)oc2ccc(F)cc12 [Compound A, (S)-5-(3-(1-(5-fluoro-3-methylbenzofuran-2-yl)-2-methylpropyl)ureido)-N,N-dimethylnicotinamide]"
8.6,,213,"Cc1c([C@@H](Nc2nc3ccc(C(N)=O)cc3[nH]2)C(C)C)oc2ccc(F)cc12 [Compound B, (S)-2-((1-(5-fluoro-3-methylbenzofuran-2-yl)-2-methylpropyl)amino)-1H-benzo[d]imidazole-6-carboxamide]"
